In ChEMBL document CHEMBL5380795, “Design, Synthesis, and Bioactivity Investigation of Cyclic Lipopeptide Antibiotics Containing Eight to Nine Amino Acids” (J Med Chem, 2023):
Values after ≈ are worked out from the molar mass of the structure shown. Bridge positions count the residues as written; N and C are the ends. Square brackets hold non-standard residues; d marks the D form. Peptide text beside a SMILES is read from it. * marks the point of attachment. Decanoyl = CCCCCCCCCC(=O)*; dDab = NCC[C@@H](N)C(=O)O; Dab = NCC[C@H](N)C(=O)O

Assays:
Staphylococcus aureus [1] = assay: Antibacterial activity against methicillin resistant Staphylococcus aureus ATCC 33591 assessed as inhibition of bacterial growth incubated for 18 to 24 hrs by broth microdilution method; assay type: functional; conditions: time 18-24 hrs
Staphylococcus aureus [2] = assay: Antibacterial activity against Staphylococcus aureus ATCC 29213 assessed as inhibition of bacterial growth incubated for 18 to 24 hrs by broth microdilution method; assay type: functional; conditions: time 18-24 hrs
[3] = system: Staphylococcus epidermidis; assay: Antibacterial activity against methicillin resistant Staphylococcus epidermidis clinical isolate 19-5 assessed as inhibition of bacterial growth incubated for 18 to 24 hrs by broth microdilution method; assay type: functional; conditions: time 18-24 hrs
[4] = system: Staphylococcus epidermidis; assay: Antibacterial activity against methicillin resistant Staphylococcus epidermidis clinical isolate 19-6 assessed as inhibition of bacterial growth incubated for 18 to 24 hrs by broth microdilution method; assay type: functional; conditions: time 18-24 hrs
Escherichia coli [5] = assay: Antibacterial activity against Escherichia coli ATCC BAA-2523 assessed as inhibition of bacterial growth incubated for 18 to 24 hrs by broth microdilution method; assay type: functional; conditions: time 18-24 hrs
Escherichia coli [6] = assay: Antibacterial activity against Escherichia coli NCTC 13353 assessed as inhibition of bacterial growth incubated for 18 to 24 hrs by broth microdilution method; assay type: functional; conditions: time 18-24 hrs
Escherichia coli [7] = assay: Antibacterial activity against Escherichia coli clinical isolate 19-2 assessed as inhibition of bacterial growth incubated for 18 to 24 hrs by broth microdilution method; assay type: functional; conditions: time 18-24 hrs
Escherichia coli [8] = assay: Antibacterial activity against KPC producing Escherichia coli ATCC BAA-2340 assessed as inhibition of bacterial growth incubated for 18 to 24 hrs by broth microdilution method; assay type: functional; conditions: time 18-24 hrs
Klebsiella pneumoniae [9] = assay: Antibacterial activity against carbapenem resistant Klebsiella pneumoniae clinical isolate 19-15 assessed as inhibition of bacterial growth incubated for 18 to 24 hrs by broth microdilution method; assay type: functional; conditions: time 18-24 hrs
Klebsiella pneumoniae [10] = assay: Antibacterial activity against carbapenem resistant Klebsiella pneumoniae clinical isolate 19-17 assessed as inhibition of bacterial growth incubated for 18 to 24 hrs by broth microdilution method; assay type: functional; conditions: time 18-24 hrs
Klebsiella pneumoniae [11] = assay: Antibacterial activity against KPC producing Klebsiella pneumoniae ATCC BAA-1705 assessed as inhibition of bacterial growth incubated for 18 to 24 hrs by broth microdilution method; assay type: functional; conditions: time 18-24 hrs
Pseudomonas aeruginosa [12] = assay: Antibacterial activity against Pseudomonas aeruginosa clinical isolate 19-1 assessed as inhibition of bacterial growth incubated for 18 to 24 hrs by broth microdilution method; assay type: functional; conditions: time 18-24 hrs
Pseudomonas aeruginosa [13] = assay: Antibacterial activity against carbapenem resistant Pseudomonas aeruginosa clinical isolate 19-3 assessed as inhibition of bacterial growth incubated for 18 to 24 hrs by broth microdilution method; assay type: functional; conditions: time 18-24 hrs
Pseudomonas aeruginosa [14] = assay: Antibacterial activity against carbapenem resistant Pseudomonas aeruginosa clinical isolate 17-1 assessed as inhibition of bacterial growth incubated for 18 to 24 hrs by broth microdilution method; assay type: functional; conditions: time 18-24 hrs
Pseudomonas aeruginosa [15] = assay: Antibacterial activity against Pseudomonas aeruginosa ATCC 27853 assessed as inhibition of bacterial growth incubated for 18 to 24 hrs by broth microdilution method; assay type: functional; conditions: time 18-24 hrs
Acinetobacter baumannii [16] = assay: Antibacterial activity against carbapenem resistant Acinetobacter baumannii clinical isolate 19-8 assessed as inhibition of bacterial growth incubated for 18 to 24 hrs by broth microdilution method; assay type: functional; conditions: time 18-24 hrs
Acinetobacter baumannii [17] = assay: Antibacterial activity against oxacillinase-27 producing Acinetobacter baumannii NCTC 13304 assessed as inhibition of bacterial growth incubated for 18 to 24 hrs by broth microdilution method; assay type: functional; conditions: time 18-24 hrs
[18] = Cytotoxicity against human HK-2 cells assessed as inhibition of cell growth incubated for 72 hrs by CCK-8 assay; assay type: toxicity, cell-based
[19] = Selectivity index, ratio of IC50 for cytotoxicity against human HK-2 cells to MIC for antibacterial activity against Escherichia coli ATCC BAA-2523; assay type: toxicity, cell-based
[20] = Plasma protein binding in human at 2 uM incubated for 6 hrs by equilibrium dialysis based LC-MS/MS analysis; assay type: ADME, cell-free; conditions: read-out: PPB (converted)
Escherichia coli [21] = assay: Antibacterial activity against Escherichia coli; assay type: functional
Pseudomonas aeruginosa [22] = assay: Antibacterial activity against Pseudomonas aeruginosa; assay type: functional
Klebsiella pneumoniae [23] = assay: Antibacterial activity against Klebsiella pneumoniae; assay type: functional
Acinetobacter baumannii [24] = assay: Antibacterial activity against Acinetobacter baumannii; assay type: functional
Staphylococcus aureus [25] = assay: Antibacterial activity against Staphylococcus aureus; assay type: functional
[26] = system: Staphylococcus epidermidis; assay: Antibacterial activity against Staphylococcus epidermidis; assay type: functional
Candida albicans = assay: Antifungal activity against Candida albicans; assay type: functional
Pseudomonas aeruginosa [27] = assay: Antibacterial activity against Pseudomonas aeruginosa ATCC 27853 incubated for 18 hrs by broth microdilution method; assay type: functional
Pseudomonas aeruginosa [28] = assay: Antibacterial activity against Pseudomonas aeruginosa FADDI-PA025 incubated for 18 hrs by broth microdilution method; assay type: functional
Pseudomonas aeruginosa [29] = assay: Antibacterial activity against Pseudomonas aeruginosa FADDI-PA070 incubated for 18 hrs by broth microdilution method; assay type: functional
Pseudomonas aeruginosa [30] = assay: Antibacterial activity against Pseudomonas aeruginosa FADDI-PA060 incubated for 18 hrs by broth microdilution method; assay type: functional
Pseudomonas aeruginosa [31] = assay: Antibacterial activity against Pseudomonas aeruginosa FADDI-PA090 incubated for 18 hrs by broth microdilution method; assay type: functional

Row | Structure (SMILES) | MIC (Staphylococcus aureus [1]) [µg/mL] | MIC (Staphylococcus aureus [2]) [µg/mL] | MIC [3] [µg/mL] | MIC [4] [µg/mL] | MIC (Escherichia coli [5]) [µg/mL] | MIC (Escherichia coli [6]) [µg/mL] | MIC (Escherichia coli [7]) [µg/mL] | MIC (Escherichia coli [8]) [µg/mL] | MIC (Klebsiella pneumoniae [9]) [µg/mL] | MIC (Klebsiella pneumoniae [10]) [µg/mL] | MIC (Klebsiella pneumoniae [11]) [µg/mL] | MIC (Pseudomonas aeruginosa [12]) [µg/mL] | MIC (Pseudomonas aeruginosa [13]) [µg/mL] | MIC (Pseudomonas aeruginosa [14]) [µg/mL] | MIC (Pseudomonas aeruginosa [15]) [µg/mL] | MIC (Acinetobacter baumannii [16]) [µg/mL] | MIC (Acinetobacter baumannii [17]) [µg/mL] | IC50 at 72 h [18] [µg/mL] | selectivity ratio [19] | MIC (Escherichia coli [21]) [µg/mL] | also measured
1 | CCCCCCC[C@@H](O)CC(=O)N[C@H](CCN)C(=O)N[C@H]1CCNC(=O)[C@H](CC(C)C)NC(=O)[C@H](CCN)NC(=O)[C@H](CCN)NC(=O)[C@H](CC(C)C)NC(=O)[C@@H](CC(C)C)NC(=O)[C@H](CCN)NC1=O | > 64 | > 64 | 2 (≈ 1.98 µM) | 16 (≈ 15.8 µM) | 16 (≈ 15.8 µM) | 16 (≈ 15.8 µM) | 16 (≈ 15.8 µM) | 8 (≈ 7.92 µM) | 16 (≈ 15.8 µM) | 16 (≈ 15.8 µM) | 16 (≈ 15.8 µM) | 2 (≈ 1.98 µM) | 4 (≈ 3.96 µM) | 2 (≈ 1.98 µM) | 1 (≈ 0.99 µM) | 4 (≈ 3.96 µM) | 8 (≈ 7.92 µM) | 60.7 (≈ 60.1 µM) | 3.8 | 0.1 (≈ 0.099 µM) | fraction unbound at 6 h, 2 µM [20]: 0.0216; MIC (Pseudomonas aeruginosa [22]): 0.4 µg/mL (≈ 0.396 µM); MIC (Klebsiella pneumoniae [23]): 0.78 µg/mL (≈ 0.772 µM); MIC (Acinetobacter baumannii [24]): 4 µg/mL (≈ 3.96 µM); MIC (Staphylococcus aureus [25]): 3.1 µg/mL (≈ 3.07 µM); MIC [26]: 0.6 µg/mL (≈ 0.594 µM); MIC (Candida albicans): 4.7 µg/mL (≈ 4.65 µM)
2 | CCCCCCCCCC(=O)N[C@H](CCN)C(=O)N[C@H]1CCNC(=O)[C@H]([C@@H](C)O)NC(=O)[C@H](CCN)NC(=O)[C@H](CCN)NC(=O)[C@H](CC(C)C)NC(=O)[C@@H](Cc2ccccc2)NC(=O)[C@H](CCN)NC1=O (Decanoyl-[dDab][Dab][Dab][dF]L[Dab][Dab]T; lactam 2-C) | – | – | – | – | – | – | – | – | – | – | – | – | – | – | – | – | – | – | – | – | MIC (Pseudomonas aeruginosa [27]): 0.5 µg/mL (≈ 0.492 µM); MIC (Pseudomonas aeruginosa [28]): 0.5 µg/mL (≈ 0.492 µM); MIC (Pseudomonas aeruginosa [29]): 0.5 µg/mL (≈ 0.492 µM); MIC (Pseudomonas aeruginosa [30]): 0.5 µg/mL (≈ 0.492 µM); MIC (Pseudomonas aeruginosa [31]): 0.5 µg/mL (≈ 0.492 µM)
3 | CCCCCCC[C@@H](O)CC(=O)N[C@H](CCN)C(=O)N[C@H]1CCNC(=O)[C@H](CC(C)C)NC(=O)[C@H](CCN)NC(=O)[C@H](CCN)NC(=O)[C@H](Cc2ccccc2)NC(=O)[C@@H](CC(C)C)NC(=O)[C@H](CCN)NC1=O | 32 (≈ 30.6 µM) | 32 (≈ 30.6 µM) | 2 (≈ 1.92 µM) | 8 (≈ 7.66 µM) | 8 (≈ 7.66 µM) | 16 (≈ 15.3 µM) | 16 (≈ 15.3 µM) | 8 (≈ 7.66 µM) | 16 (≈ 15.3 µM) | 16 (≈ 15.3 µM) | 8 (≈ 7.66 µM) | 4 (≈ 3.83 µM) | 4 (≈ 3.83 µM) | 2 (≈ 1.92 µM) | 2 (≈ 1.92 µM) | 4 (≈ 3.83 µM) | 8 (≈ 7.66 µM) | 16.1 (≈ 15.4 µM) | 2 | 0.1 (≈ 0.0958 µM) | MIC (Pseudomonas aeruginosa [22]): 0.4 µg/mL (≈ 0.383 µM); MIC (Klebsiella pneumoniae [23]): 0.78 µg/mL (≈ 0.747 µM); MIC (Acinetobacter baumannii [24]): 4 µg/mL (≈ 3.83 µM); MIC (Staphylococcus aureus [25]): 3.1 µg/mL (≈ 2.97 µM); MIC [26]: 0.6 µg/mL (≈ 0.575 µM); MIC (Candida albicans): 4.7 µg/mL (≈ 4.5 µM)
